Among the data in ChEMBL document CHEMBL5728884, “Kinase inhibitors and uses thereof” (2021) are IC50 values, retold here.

The assay deals with T1, Receptor-interacting serine/threonine-protein kinase 1 (Homo sapiens, UniProt Q13546).
T1 sequence (Q13546 whole entry): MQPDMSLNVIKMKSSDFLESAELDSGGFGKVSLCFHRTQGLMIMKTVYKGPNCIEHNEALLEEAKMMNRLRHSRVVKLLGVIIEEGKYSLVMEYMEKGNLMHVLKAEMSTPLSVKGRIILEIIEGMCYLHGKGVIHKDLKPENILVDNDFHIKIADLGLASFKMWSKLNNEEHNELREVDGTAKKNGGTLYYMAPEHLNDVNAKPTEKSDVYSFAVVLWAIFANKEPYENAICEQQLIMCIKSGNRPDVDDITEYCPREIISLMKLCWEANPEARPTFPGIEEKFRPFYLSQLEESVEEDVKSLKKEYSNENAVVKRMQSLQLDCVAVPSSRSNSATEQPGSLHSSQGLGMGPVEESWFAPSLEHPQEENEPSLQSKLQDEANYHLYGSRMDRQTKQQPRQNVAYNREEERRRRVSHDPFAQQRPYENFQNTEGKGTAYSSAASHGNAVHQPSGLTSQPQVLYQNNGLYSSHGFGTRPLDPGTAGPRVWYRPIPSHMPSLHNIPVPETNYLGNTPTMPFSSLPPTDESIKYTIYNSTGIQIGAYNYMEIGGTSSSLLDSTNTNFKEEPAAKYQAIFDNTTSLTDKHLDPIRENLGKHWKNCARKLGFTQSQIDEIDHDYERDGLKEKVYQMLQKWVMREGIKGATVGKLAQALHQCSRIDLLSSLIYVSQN
The assay can be described thus: Fluorescent Polarization Binding (FP Binding) Assay: Test compounds were serially diluted in DMSO at 100 fold final concentrations in the assay (1% DMSO final). In each well of a 384-well Plate were dispensed 0.1 μL of compound solution (or DMSO for controls) followed by 5 μL of GST-hRIPK1 (8-327) at twice the final concentrations in assay buffer (50 mM HEPES pH 7.5, 10 mM NaCl, 50 mM MgCl2, 0.02% CHAPS, 0.5 mM DTT and 0.01% Pluronic F127). For negative control the enzyme addition was replaced by assay buffer only.After addition of 5 μL of fluorescentlabeled ligand at twice the final concentrations in assay buffer, the plate was incubated at RT for […]. At the end, the binding was measured as FP value with the Envision (PerkinElmer) plate reader using filter for an excitation λ=531 nm FP and an emission λ=595 nm FP (S & P-pol). GST-hRIPK1 (8-327) enzyme was produced via Baculovirus expression.

In general, IC50 refers to the concentration that inhibits the measured activity by half. A lower IC50 goes with greater potency in that assay. As to `CC1(C(=O)N2CCOc3ccncc3C2)CCN(c2ncc(F)cn2)CC1(F)F` (configuration not stated), the half-inhibitory concentration (IC50) is < 100 nM.
For `Cc1nc(N2CCC(F)(C(=O)N3CCOc4c(C#N)cncc4C3)CC2)ncc1F`, the concentration for half-maximal inhibition (IC50) was < 100 nM.
